Experimental data taken from BigSolDB 2.1.

NC(N)=S
solubility (mole fraction)
Settings	283.15 K	288.15 K	293.15 K	298.15 K	303.15 K	308.15 K	313.15 K	318.15 K	323.15 K
in 2-butanone	0.0135	0.0154	0.0171	0.0189	0.0203	0.0219	0.0234	0.0247	0.0264
in acetone	0.0348	0.0364	0.0375	0.0389	0.0401	0.042	0.0438	0.0465	0.0482
in acetonitrile	0.00865	0.00982	0.0107	0.012	0.0134	0.0146	0.016	0.018	0.0196
in ethanol	0.0172	0.02	0.0227	0.0254	0.0285	0.0315	0.0353	0.0394	0.0442
in ethyl acetate	0.00497	0.00519	0.00548	0.0058	0.0062	0.00664	0.00718	0.00769	0.00814
in isobutanol	0.00827	0.0101	0.0116	0.0132	0.0152	0.0171	0.0189	0.0224	0.0251
in isopropanol	0.0133	0.0151	0.0168	0.019	0.0225	0.0246	0.0273	0.0308	0.0344
in methanol	0.0423	0.0471	0.0521	0.0596	0.0644	0.07	0.0761	0.0848	0.0944
in methyl acetate	0.00556	0.00628	0.00673	0.00747	0.00814	0.00885	0.00951	0.0102	0.0109
in n-butanol	0.0104	0.0121	0.0133	0.015	0.0173	0.0195	0.0212	0.0238	0.0274
in n-propanol	0.0128	0.0143	0.0157	0.0177	0.0209	0.0231	0.0255	0.029	0.0326
in water	0.0211	0.0265	0.0325	0.0396	0.0493	0.0592	0.0701	0.0835	0.102
